Laboratory results as given in ChEMBL document CHEMBL1150074, “Cytotoxic aromatic triterpenes from Maytenus ilicifolia and Maytenus chuchuhuasca” (J Nat Prod, 1994).
Values after ≈ are worked out from the molar mass of the structure shown.

Tests used:
Format in all cases: functional, cell-based
[1] = tested on: L1210; experiment: Cytotoxicity against mouse L1210 cells by MTT assay
[2] = tested on: P388; experiment: Cytotoxicity against mouse P388 cells by MTT assay
[3] = tested on: KB; experiment: Cytotoxicity against human KB cells by MTT assay

Structure (SMILES)	IC50 [1]	IC50 [2]	IC50 [3]
COc1c(O)cc2c(c1C)C(=O)C=C1[C@@]2(C)CC[C@]2(C)[C@@H]3C[C@@H](C)C(=O)C[C@]3(C)CC[C@]12C	> 100 µg/mL	> 100 µg/mL	11 µg/mL (≈ 24.4 µM)
CC1=C(O)C(=O)C=C2C1=CC=C1[C@@]2(C)CC[C@@]2(C)[C@@H]3C[C@@H](C)C(=O)[C@@H](O)[C@]3(C)CC[C@]12C [TINGENIN B]		0.012 µg/mL (≈ 0.0275 µM)	
COC(=O)[C@]1(C)CC[C@]2(C)CC[C@]3(C)C4=CC(=O)c5c(cc(O)c(O)c5C)[C@]4(C)CC[C@@]3(C)[C@@H]2C1	2.8 µg/mL (≈ 5.83 µM)	1.5 µg/mL (≈ 3.12 µM)	2.8 µg/mL (≈ 5.83 µM)
COC(=O)[C@]1(C)CC[C@]2(C)CC[C@]3(C)C4=CC=C5C(=CC(=O)C(O)=C5C)[C@]4(C)CC[C@@]3(C)[C@@H]2C1 [PRISTIMERIN]	0.36 µg/mL (≈ 0.775 µM)	0.12 µg/mL (≈ 0.258 µM)	0.55 µg/mL (≈ 1.18 µM)
Cc1c(O)c(O)cc2c1C(=O)C=C1[C@@]2(C)CC[C@@]2(C)[C@@H]3C[C@@H](C)C(=O)C[C@]3(C)CC[C@]12C [6-OXOTINGENOL]	6 µg/mL (≈ 13.7 µM)	2.6 µg/mL (≈ 5.96 µM)	30 µg/mL (≈ 68.7 µM)
COc1c(O)cc2c(c1CO)C(=O)C=C1[C@@]2(C)CC[C@]2(C)[C@@H]3C[C@@H](C)C(=O)[C@@H](O)[C@]3(C)CC[C@]12C		4.3 µg/mL (≈ 8.91 µM)	
CC1=C(O)C(=O)C=C2C1=CC=C1[C@@]2(C)CC[C@@]2(C)[C@@H]3C[C@@H](C)C(=O)C[C@]3(C)CC[C@]12C [TINGENONE]	0.14 µg/mL (≈ 0.333 µM)	0.041 µg/mL (≈ 0.0975 µM)	0.28 µg/mL (≈ 0.666 µM)
